Molecules are shown by their SMILES.

For the assay, the target named is T1, human MDM2 (GST-hMDM2 aa 1-188), interaction with biotinylated-p53 (aa 1-83) (Homo sapiens, UniProt Q00987).
T1 construct: Amino acid residues 1-188 of human MDM2 were expressed; made in house; host or cells: Escherichia coli
T1 sequence (Q00987 1-188): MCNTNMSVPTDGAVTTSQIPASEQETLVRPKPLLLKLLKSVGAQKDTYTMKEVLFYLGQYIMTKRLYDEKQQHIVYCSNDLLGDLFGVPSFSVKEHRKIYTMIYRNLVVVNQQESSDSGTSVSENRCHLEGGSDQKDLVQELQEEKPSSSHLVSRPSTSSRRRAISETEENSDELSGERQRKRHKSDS
The assay is described as follows: Homogenous Time-Resolved Fluorescence Assay (HTRF1 assay), inhibition of HDM2-p53 interaction. In kind it is binding. As to conditions: 2.5 nM GST-hMDM2, 5 nM biotinylated-p53, 200 mM KF. The protocol:
Homogenous Time-Resolved Fluorescence Assay (HTRF1 Assay)
Residues 1-83 of human p53 were expressed as an amino-terminal AviTag™-TrxA-6xHis fusion protein (biotinylated p53) in E. coli. Each protein was purified from cell paste by affinity chromatography.
Specifically, 10 uL of GST-hMDM2 was incubated with 10 ul of diluted compound (various concentrations, serially diluted) in 10% DMSO for 20 minutes at room temperature. 20 uL of biotinylated-p53 was added to the GST-hMDM2+ compound mixture, and then incubated at room temperature for 60 min. 10 uL of detection buffer consisting of SA-XLent, anti-GST cryptate antibody and KF was added to GST-hMDM2, biotinylated-p53 and compound reaction and left at room temperature to reach equilibrium for >4 hrs. The final concentration of DMSO in the reaction was 2%. Time-resolved fluorescence readings were measured on a microplate multilabel reader. Percentage of inhibition was calculated relative to nutlin-3.
With `O=C(O)C[C@H]1O[C@H](c2cccc(Cl)c2)[C@@H](c2ccc(Cl)cc2F)N(CC2CC2)C1=O` (single isomer, unassigned) [Example 62], the IC50 came out at 0.9 µM.

The compound `O=C(O)C[C@@H]1O[C@H](c2cccc(Cl)c2)[C@@H](c2ccc(Cl)cc2)N(Cc2ncco2)C1=O` [Example 43, 2-((2S,5R,6R)-6-(3-Chlorophenyl)-5-(4-chlorophenyl)-4-(oxazol-2-ylmethyl)-3-oxomorpholin-2-yl)acetic acid] gave an IC50 of 1.1 µM.

The compound `O=C(O)CC1O[C@H](c2cc(F)cc(Cl)c2)[C@@H](c2ccc(Cl)cc2)N(CC2CC2)C1=O` (single isomer, unassigned) [Example 83] displayed a 50% inhibitory concentration (IC50) of 0.3 µM. This IC50 lies about 3.7-fold lower than the previous one.

Compound `O=C(O)C[C@@H]1O[C@H](c2cccc(Cl)c2)[C@@H](c2ccc(Cl)cn2)N(CC2CC2)C1=O` (single isomer, unassigned) [Example 7] had a half-maximal inhibitory concentration (IC50) of 1.1 µM. Compared with the last compound, the IC50 is about 3.7-fold higher.

Compound `CS(=O)(=O)c1cc(Cl)cc([C@H]2O[C@@H](CC(=O)O)C(=O)N(CC3CC3)[C@@H]2c2ccc(Cl)cc2)c1` (single isomer, unassigned) [Example 111] showed a half-maximal inhibitory concentration (IC50) of 2.3 µM.

In turn, `CC[C@@H](C(=O)OC(C)(C)C)N1C(=O)[C@H](CC(=O)O)O[C@H](c2cccc(Cl)c2)[C@H]1c1ccc(Cl)cc1` (single isomer, unassigned) [Example 31] displayed an IC50 of 0.1 µM.

Compound `C[C@@H](c1ccccc1)N1C(=O)[C@@H](CC(=O)O)O[C@H](c2cccc(Cl)c2)[C@H]1c1ccc(Cl)cc1` [Example 26, 2-((2R,5R,6R)-6-(3-Chlorophenyl)-5-(4-chlorophenyl)-3-oxo-4-((S)-1-phenylethyl)morpholin-2-yl)acetic acid] displayed an IC50 of 1.5 µM. This IC50 lies about 15-fold higher than the previous one.

For the compound `O=C(O)CC1O[C@H](c2cccc(Cl)c2)[C@@H](c2ccc(C(F)(F)F)nc2)N(CC2CC2)C1=O` (single isomer, unassigned) [Example 81], the concentration for half-maximal inhibition (IC50) amounted to 15.7 µM.

As for `COc1ccc([C@@H]2[C@@H](c3cccc(Cl)c3)OC(CC(=O)O)C(=O)N2CC2CC2)cn1` (single isomer, unassigned) [Example 73], the half-maximal inhibitory concentration (IC50) was determined as 11.6 µM.

Compound `O=C(O)C[C@H]1OC(c2cccc(Cl)c2)[C@@H](c2ccc(Cl)cn2)N(CC2CC2)C1=O` (single isomer, unassigned) [Example 8] displayed an IC50 of 1.6 µM.

`CC[C@H](C(=O)OC(C)(C)C)N1C(=O)[C@@H](CC(=O)O)O[C@H](c2cccc(Cl)c2)[C@H]1c1ccc(Cl)cc1` (single isomer, unassigned) [Example 33]: it took 1.1 µM to reach half-maximal inhibition (IC50).

Regarding `C[C@H](c1ccccc1)N1C(=O)[C@@H](CC(=O)O)O[C@H](c2cccc(Cl)c2)[C@H]1c1ccc(Cl)cc1` [Example 24, 2-((2R,5R,6R)-6-(3-Chlorophenyl)-5-(4-chlorophenyl)-3-oxo-4-((R)-1-phenylethyl)morpholin-2-yl)acetic acid], the midpoint of inhibition, the IC50, lay at 1 µM.

In turn, `O=C(O)CC1O[C@H](c2cccc(Cl)c2)[C@@H](c2ccc(Cl)nc2)N(CC2CC2)C1=O` (single isomer, unassigned) [Example 71] came in with an IC50 of 3.1 µM.

As for `O=C(O)CC1O[C@H](c2ccnc(Cl)c2)[C@@H](c2ccc(Cl)cc2)N(CC2CC2)C1=O` (single isomer, unassigned) [Example 91], the IC50 is 0.6 µM.

`O=C(O)CC1O[C@H](c2cc(Cl)ccc2F)[C@@H](c2ccc(Cl)cc2)N(CC2CC2)C1=O` (single isomer, unassigned) [Example 100]: inhibition was half-maximal at 1.1 µM (IC50).

Take `Cc1ccc([C@@H]2[C@@H](c3cccc(Cl)c3)O[C@@H](CC(=O)O)C(=O)N2CC2CC2)cc1` [Example 60, 2-((2S,5R,6R)-6-(3-Chlorophenyl)-4-(cyclopropylmethyl)-3-oxo-5-(p-tolyl)morpholin-2-yl)acetic acid]: the IC50 is 0.7 µM.

Take `O=C(O)CC1O[C@H](c2cccc(Cl)c2)[C@@H](c2ccc(Cl)cc2Br)N(CC2CC2)C1=O` (single isomer, unassigned) [Example 79]: the IC50 is 70.2 µM. Compared with the last compound, the IC50 is about 100-fold higher.

Compound `O=C(O)CC1O[C@H](c2cccc(Cl)c2)[C@@H](c2ccc(Cl)nc2)N(CC2CC2)C1=O` (single isomer, unassigned) [Example 72] came in with an IC50 of 1.5 µM.

In general, IC50 refers to the concentration that gives 50% inhibition. The low end stands for greater potency in that assay, the high end for weaker potency in that assay.

These data come from patent US9376425B2, “Heterocyclic compounds as MDM2 inhibitors for the treatment of cancer” (AMGEN INC., priority 2011, dated 2016).
